Holding throughout (assay type): cell-based
Experiment [1] concerns ZR-75-30 (HER2/ErbB2 amp). As to the kind of experiment: In vitro growth inhibition (GI50), ZR-75-30. Conditions: Homo sapiens. An excerpt: (§1) Tumor cell line is an effective cell model for studying the inhibition of tumor cell growth or proliferation in vitro. In the present invention, a representative tumor cell line was selected to determine the cell growth inhibition activity of the present compound. All cell lines used were from ATCC, DSMZ, and the Cell Bank of the Chinese Academy of Sciences. Cell culture conditions and methods were in accordance with the requirements of each cell line. Cells were subcultured in vitro for no more than 3 passages each time, and as required, single-clone purification and identification of cell lines could be carried out.
(§2) The cell culture media used were RPMI1640 (Gibco), MEM (Gibco), McCOY'S5A (Gibco), and IMDM (Gibco). The complete medium was prepared by supplement with 5˜20% fetal calf serum (Gibco), 1% double-antibiotics (10000 units/mL penicillin and 10000 units/mL), 2 mM glutamine or 1 mM sodium pyruvate, respectively.
Human gastric cancer cell line NCI-N87 (HER2/ErbB2 amp, ATCC), human breast cancer cell line HCC1954 (HER2/ErbB2 amp, ATCC) and ZR-75-30 (HER2/ErbB2 amp, ATCC), human adenocarcinoma cell line AU565 (HER2/ErbB2 amp, ATCC), human lung squamous cell carcinoma cell line NCI-H2170 (HER2/ErbB2 amp, ATCC), human bronchioalveolar adenocarcinoma cell line NCI-H1781 (HER2/ErbB2 Ins G776V,C mutant type, ATCC) were cultured with a 1×RPMI1640 complete medium (10% FBS), respectively. Human lung adenocarcinoma cell line Calu-3 (HER2/ErbB2 amp, ATCC) was cultured with 1×MEM, 10% FBS, 1% double antibody, 1% NEAA (Gibco), 2 mM glutamine and 1 mM sodium pyruvate. The human breast cancer cell line SK-BR-3 (HER2/ErbB2 amp, ATCC) was cultured with a McCOY'S5A complete medium (10% FBS).
(§3) Adherent cells were digested with 0.25% pancreatin-EDTA (Gibco). The suspension cells were collected by centrifugation. The supernatant was discarded and the cell pellet was resuspended and counted. Different cell concentrations (5˜10×10^4 cells/mL) were prepared according to the growth cycle of each cell line and then seeded on a 96-well plate (Corning), 100 μL/well. The cells were incubated overnight at 37° C., 5% CO2. The compounds were added to the cells on the second day with 2 wells in parallel. The final concentration of organic solvent shall not exceed 1%. The cells were continually incubated for 3 to 5 days, and then subjected to MTT assay.
(§4) The compound of the present invention and the control compound were dissolved in DMSO (Sigma) respectively, with the purity of more than 98%. The compound was stored in a concentration of 10 mM at −20° C. and diluted to 2- or 10-fold series prior to use.
(§5) Dojindo CCK8 reagent kit was used as MTT assay. THERMO […] FC meter was used as microplate reader.
(§6) For adherent cells, culture medium was removed and immediately replaced with the fresh prepared medium which contains 10% CCK8 reagent (100 μL/well). For the suspension cells, CCK8 was directly added to 10% of the final concentration. The cells were continually incubated for 1˜4 h. When a dark yellow color could be observed in the solvent control wells, the absorbance value at OD450 nm was measured and the cell growth rate was calculated according to the following formula: Cell Growth Rate (%)=100*(T−T0)/(C−T0) T=optical density of drug treatment cell well—optical density of blank control well; T0=optical density of cell well before drug treatment—optical density of blank control well; C=optical density of cell well of solvent control group—optical density of blank control well. The concentration value of 50% inhibition of cell growth (GI50) was calculated according to the drug concentration and cell growth rate curve. The experiment was independently repeated 1˜3 times, and subject to biological statistical analysis. 4. Experimental Results
Tumor cell growth inhibition test was performed by selecting representative compounds (compounds 4, 11, 12, 16, 27, 68, 71, 77, 79, 89 and 116 of the present invention). […]

For another experiment, the system named is HL-60 (FLT3 wild type). As to the kind of experiment: In vitro growth inhibition (GI50), HL-60. Conditions: Homo sapiens, Cell lines of leukemia, read-out: GI 50 HL60 FLT3 (WT). The gist of the method:
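After 3–5 days of treatment (top concentration 5,000 nM, serially diluted 2- or 10-fold to 0.01 nM, solvent ≤1%), viability was read by CCK8 at OD450. Growth rate was normalised to the time-zero and solvent-control wells, and GI50 was derived from the curve. Cultures in RPMI1640 + 10% FBS.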

The subject of the next experiment is NCI-H1581 (FGFR1 amp). Description: In vitro growth inhibition (GI50), NCI-H1581. Particulars: Homo sapiens.
Excerpt: as §1, §2
Human non-small cell lung cancer cell NCI-H1581 (FGFR1 amp, ATCC) is an FGFR1 gene amplified/overexpressed tumor cell line. It was cultured in complete medium comprising 1×RPMI1640 with 10% FBS.
as §3, §4, §5, §6
Tumor cell growth inhibition test was performed by selecting representative compounds (compounds 4, 11, 12, 16, 27, 68, 71, 77, 79, 89 and 116 of the present invention). The initial concentration of the compound was 5,000 nM, then it was serially diluted by 2-fold or 10-fold to 0.01 nM. The GI50 value of each test compound was calculated according to the GI50 assay and calculation method. The experiments were repeated 1 to 3 times, and data were subjected to biological statistical analysis.

Experimental findings from patent publication US10647680B2, “Urea compound, preparation method therefor and medical use thereof” (Ancureall Pharmaceutical (Shanghai) Co., Ltd., priority 2016, dated 2020) are described below.

In the case of `CC(C)(C)c1cc(NC(=O)Nc2ccc(-n3cnc4cc(O)ccc43)cc2)no1` [Compound 4, 1-(5-tert-butyl-isoxazol-3-yl)-3-[4-(5-hydroxy-benzimidazol-1-yl)-phenyl]-urea], the results for the GI50 (in experiment [1]; with HL-60 (FLT3 wild type); in the experiment on NCI-H1581 (FGFR1 amp)) were more than 2500 nM, 100 to 1000 nM and more than 2500 nM, respectively.
`CC(C)(C)c1cc(NC(=O)Nc2ccc(-n3cnc4cc(OCCO)ccc43)cc2)no1` [Compound 11, 1-(5-tert-butyl-isoxazol-3-yl)-3-{4-[5-(2-hydroxy-ethoxyl)-benzimidazol-1-yl]-phenyl]-urea]: the GI50 is more than 2500 nM in experiment [1], more than 1000 nM in the experiment with HL-60 (FLT3 wild type) and more than 2500 nM in the experiment on NCI-H1581 (FGFR1 amp).
`CC(C)(C)c1cc(NC(=O)Nc2ccc(-n3cnc4cc(OCCN5CCOCC5)ccc43)cc2)no1` [Compound 16, 1-(5-tert-butyl-isoxazol-3-yl)-3-{4-[5-(2-morpholin-4-yl-ethoxyl)-benzimidazol-1-yl]-phenyl}-urea]: the values for the GI50 (in experiment [1]; in the experiment with HL-60 (FLT3 wild type); in the experiment on NCI-H1581 (FGFR1 amp)) were more than 2500 nM, more than 1000 nM and more than 2500 nM, respectively.
Regarding `CC(C)(C)c1cc(NC(=O)Nc2ccc(-n3cnc4ccc(OCCN5CCOCC5)cc43)cc2)no1` [Compound 27, 1-(5-tert-butyl-isoxazol-3-yl)-3-{4-[6-(2morpholin-4-yl-ethoxyl)-benzimidazol-1-yl]-phenyl}-urea], the GI50 in experiment [1] is more than 2500 nM; in the experiment with HL-60 (FLT3 wild type), 100 to 1000 nM; in the experiment on NCI-H1581 (FGFR1 amp), more than 2500 nM.
Turning to `CC(C)(C)c1cc(NC(=O)Nc2ccc(-n3cnc4ccccc43)cc2)[nH]n1` [Compound 68, 1-(4-benzimidazol-1-yl-phenyl)-3-(5-tert-butyl-2H-pyrazol-3-yl)-urea], the values for the GI50 (in experiment [1]; in the experiment on HL-60 (FLT3 wild type); in the experiment on NCI-H1581 (FGFR1 amp)) were more than 2500 nM, more than 1000 nM and more than 2500 nM, respectively.
For `COc1ccc2c(c1)ncn2-c1ccc(NC(=O)Nc2cc(C(C)(C)C)n[nH]2)cc1` [Compound 71, 1-(5-tert-butyl-2H-pyrazol-3-yl)-3-[4-(5-methoxyl-benzimidazol-1-yl)-phenyl]-urea], the GI50 is more than 2500 nM in experiment [1], more than 1000 nM in the experiment with HL-60 (FLT3 wild type) and more than 2500 nM in the experiment on NCI-H1581 (FGFR1 amp).
In the case of `COCCOc1ccc2c(c1)ncn2-c1ccc(NC(=O)Nc2cc(C(C)(C)C)n[nH]2)cc1` [Compound 77, 1-(5-tert-butyl-2H-pyrazol-3-yl)-3-{4-[5-(2-methoxyl-ethoxyl)-benzimidazol-1-yl]-phenyl}-urea], the figures for the GI50 (in experiment [1]; with HL-60 (FLT3 wild type); with NCI-H1581 (FGFR1 amp)) were more than 2500 nM, more than 1000 nM and more than 2500 nM, respectively.
In the case of `CC(C)(C)c1cc(NC(=O)Nc2ccc(-n3cnc4cc(OCCO)ccc43)cc2)[nH]n1` [Compound 79, 1-(5-tert-butyl-2H-pyrazol-3-yl)-3-{4-[5-(2-hydroxy-ethoxyl)-benzimidazol-1-yl]-phenyl]urea], the GI50 in experiment [1] is more than 2500 nM; in the experiment on HL-60 (FLT3 wild type), more than 1000 nM; in the experiment on NCI-H1581 (FGFR1 amp), more than 2500 nM.
`CC(C)(C)c1cc(NC(=O)Nc2ccc(-n3cnc4cc(OCCN5CCOCC5)ccc43)cc2)[nH]n1` [Compound 89, 1-(5-tert-butyl-2H-pyrazol-3-yl)-3-{4-[5-(2-morpholin-4-yl-ethoxyl)-benzimidazol-1-yl]-phenyl}-urea]: the values for the GI50 (in experiment [1]; with HL-60 (FLT3 wild type); with NCI-H1581 (FGFR1 amp)) were more than 2500 nM, more than 1000 nM and more than 2500 nM, respectively.
Take `CC(C)(C)c1cc(N)n(C(=O)Nc2ccc(-n3cnc4ccccc43)cc2)n1` [Compound 116, 5-amino-3-tert-butyl-pyrazol-1-carboxylic acid (4-benzimidazol-1-yl-phenyl)-amide]: the values for the GI50 (in experiment [1]; in the experiment with HL-60 (FLT3 wild type); with NCI-H1581 (FGFR1 amp)) were more than 2500 nM, more than 1000 nM and more than 2500 nM, respectively.
